Results from US12636368B2, “Ionizable lipids for nucleic acid delivery” (Global Life Sciences Solutions Canada ULC, priority 2019, dated 2026).

Test system: C57BL/6 mice
Test: OVA mRNA LNP intramuscular immunization, anti OVA-IgG ELISA
Format: in vivo
Conditions: i.m., days 1 and 10
Excerpt: LNP with the composition LM02b were used to encapsulate OVA antigen encoded CleanCap® OVA WT mRNA [TriLink L7610] or CleanCap® OVA 5-moU mRNA [TriLink L7210]. A lipid mixture of Ionizable lipid, DOPE, Cholesterol, and PEG-DMG2000, all in ethanol, was mixed with a low PH buffered solution of OVA mRNA at an N/P ratio of 8 using a NanoAssemblr® Ignite™ microfluidic mixer. The LNP were filtered using the Amicon™ ultra filtration technique and characterized for Size, PDI and Encapsulation Efficiency. Size and PDI were measured using dynamic light scattering techniques, and nucleic acid encapsulation efficiency was calculated from the Quant-iT RiboGreen RNA assay. […]
All animals were handled according to the Institutional Animal Care and Use Committee ethics protocols. […] Aliquots of serum samples were thawed and analyzed at appropriate dilutions for OVA expression and for IgG measurements using standard ELISA techniques.
Anti OVA-IgG ELISA of serum samples: Sera from the immunized mice were collected at 2 weeks post second immunization. OVA-specific production of IgG in response to OVA-encoded mRNA in various LNPs were measured by ELISA as described supra. […] After 30 minutes of incubation, a stop solution of 2 N sulphuric acid was added and a plate reader was used to determine absorbance at 450 nm. […]

## CCCCC/C=C\C/C=C\CCCCCCCC(=O)O[C@@H]1[C@@H](OC(=O)CCCCCCC/C=C\C/C=C\CCCCC)CO[C@@H]1COC(=O)CCCN1CCCC1 (racemic) [PNI 539]
  immune response to OVA antigen loaded LNPs: effectively elicit an immune response similar to OVA antigen
